According to paper PMC10117287 (RSC Advances, 2023):

Target: α-glucosidase (Saccharomyces cerevisiae, UniProt P53341)
Assay: α-glucosidase inhibitory activity
Type: biochemical

α-glucosidase, sequence (P53341 whole entry): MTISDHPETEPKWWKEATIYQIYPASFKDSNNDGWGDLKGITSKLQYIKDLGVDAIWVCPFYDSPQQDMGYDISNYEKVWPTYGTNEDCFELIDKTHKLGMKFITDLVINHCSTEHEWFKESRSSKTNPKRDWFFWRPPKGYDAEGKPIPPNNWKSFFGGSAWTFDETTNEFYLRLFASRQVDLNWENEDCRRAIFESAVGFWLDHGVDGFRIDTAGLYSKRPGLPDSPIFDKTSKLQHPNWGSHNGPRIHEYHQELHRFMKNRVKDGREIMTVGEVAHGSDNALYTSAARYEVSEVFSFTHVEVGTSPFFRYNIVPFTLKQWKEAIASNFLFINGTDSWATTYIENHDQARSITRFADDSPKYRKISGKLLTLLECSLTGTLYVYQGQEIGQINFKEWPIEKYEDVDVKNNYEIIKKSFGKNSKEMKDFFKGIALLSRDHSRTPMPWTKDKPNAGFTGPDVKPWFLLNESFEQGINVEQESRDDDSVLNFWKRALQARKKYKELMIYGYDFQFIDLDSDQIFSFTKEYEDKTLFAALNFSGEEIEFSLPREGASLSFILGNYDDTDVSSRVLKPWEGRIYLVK

inhibition at 10 µM (pH 7, read-out: Inhibition (I%) 10 (μM)): > 100%
inhibition at 20 µM (pH 7, read-out: Inhibition (I%) 20 (μM)): 99.28 ± 0.51%
inhibition at 30 µM (pH 7, read-out: Inhibition (I%) 30 (μM)): 95.2 ± 1%
inhibition at 40 µM (pH 7, read-out: Inhibition (I%) 40 (μM)): 81.9 ± 1.3%
inhibition at 50 µM (pH 7, read-out: Inhibition (I%) 50 (μM)): 26 ± 1.2%
Compound: COc1cc(-c2nc(-c3ccccc3)c(-c3ccccc3)n2-c2ccc(O)cc2)ccc1O [IMI-13]
